This is an account of results in patent US8361802B2, “Fluorescent ozone sensor” (University of Pittsburgh—Of the Commonwealth System of …, priority 2009, dated 2013).

A short description of data set [1]: Ozone detection in indoor air on adsorbent paper strips. As to the method: One embodiment of the present invention can be a badge that contains compound 4 that may be worn by patients so their total ozone exposure can be continuously measured through the day. A proof-of-principle experiment was conducted with compound 4 and compound 1 as a comparative. A solution of compound 4 (500 nmol) in dimethylsulfoxide (DMSO) was absorbed on a piece of adsorbent paper and allowed to dry. The paper strips were stored in an office room that had two photocopiers and two laser printers. After eight hours, the paper strips were removed and placed in a vial that contained oH 7 buffer to elute the dyes. […] The deviation in these values is presumably because of photobleaching and the lack of specificity of compound 1 towards various ROS, including singlet oxygen.
Ozone detection in indoor air. FIG. 10 are photographic illustrations of results of Ozone detection tests in indoor air using the present invention. The top photograph is a Kimwipe® before placing into photocopy room for 8 hours. The bottom photographs are a Kimwipe® in buffer for absorbance and fluorescence measurement, wherein the left photograph is an indigo carmine taken in room light), and the right photograph is compound 4 taken under long-range UV lamp. One adsorbent paper (Kimwipe®) was cut into two 11×9 cm pieces. Solution A (50 μL, 500 nmol of compound 4) was added to one portion of the Kimwipe® and allowed to dry (FIG. 10, top right). Solution B (50 μL, 500 nmol of indigo carmine) was added to the other portion of the Kimwipe® and allowed to dry (FIG. 10, top left). After overnight drying in a laboratory drawer, the paper strips were moved to a poorly ventilated photocopy room (2 photocopiers and 2 laser printers) for 8 hours. The controls remained in the laboratory drawer. After 8 hours, the samples were placed into a scintillation vial, and the dyes were eluted with pH 7 buffer (6.0 mL) (˜5 min) before fluorescence and absorbance measurement. […] FIGS. 3C-D error bars were determined from the calculated mean and standard deviation (Prism 5.0a, GraphPad Software, Inc.).

Data set [2] in a line: Indigo carmine with various ROS. The following applies: 12.5 μM indigo carmine. How it is done: Indigo carmine with various ROS. The ROS experiments described above were repeated using indigo carmine (Solution B, [Indigo Carmine]final=12.5 μM in all cases) in triplicate. […] FIG. 6A is the Absorbance spectrum of indigo carmine. FIG. 6B is the ROS with indigo carmine. Error bars were determined from the calculated mean and standard deviation (Prism 5.0a, GraphPad Software, Inc.).

A short description of data set [3]: Cytotoxicity against HeLa cells (MTS assay). The note with it: human, 2000 cells/well, 10 nM to 200 μM, read-out: 1050 (cytotoxicity). Type of data set: cell-based. How it is done: FIG. 4J is the cytotoxicity of compound 8 against HeLa cells seeds at a density of 2000 cells/well is a 96-well plate;
FIG. 4I is the ROS with compound 8. The experiment was performed in duplicate. Error bars were determined from the calculated mean and standard deviation (Prism 5.0a, GraphPad Software, Inc.). FIG. 4J is the cytotoxicity of compound 8 against HeLa cells seeds at a density of 2000 cells/well is a 96-well plate. Concentrations of compound 8 ranged from 10 nM to 200 μM. The assay was performed for 3 days, and the relative cell density was determined by an MTS assay (Promega CellTiter 96® AQueous Non-Radioactive Cell Proliferation Assay).
For orientation: Formazan colour is commonly taken as a measure of viable cells.

Data set [4] deals with Human bronchial epithelial cells (BEAS-2B). Briefly: Live-cell imaging of human bronchial epithelial cells. Format: cell-based. As to the method:
Human bronchial epithelial cells (BEAS-2B) (American Type Culture Collectin) were grown in LHC-9 medium (Invitrogen) on glass-bottomed Petri dishes (MatTek) precoated with 0.01 mg ml^−1 of human fibronectin (Invitrogen), 0.029 mg ml^−1 Vitrogen 100 (Cohesion) and 0.01 mg ml^−1 bovine serum albumin (Invitrogen) in LHC-9 medium. Immediately prior to imaging, cells were rinsed with Hank's balanced salt solution, which contained calcium and magnesium, and placed inside a temperature-controlled, airtight environmental chamber and maintained at 37° C. and 5% CO2. Images were obtained using a Nikon TE2000E-PFS (Perfect focus system) microscope equipped with a […] oil-immersion objective (Nikon, CFI PlanFluor, NA 1.3) and a fluorescien isothiocyanate longpass filter set (Chroma), a Q-Imaging SRV CCD camera (Q-imaging) and MetaMorph software (Molecular Devices). The motorized XYZ stage used was made by ASA (Eugege). Baseline images were collected before the addition of compound 8 and time-lapsed images obtained at 30 second intervals after the addition of compound 8 (250 nM). Once stage baseline had been achieved, multiple washes were carried out and the media replaced. The cells were then exposed to ozone (˜2.1 ppm) and monitored every 30 seconds for 15 minutes. Ozone was generated from medical grade oxygen (Valley Gas) via a model V1-0 ultraviolet ozonator (OREC) and analyzed with a Dasibi (Glendale) direct-reading instrument. Ozone concentrations were maintained by adjusting both the intensity of the ultraviolet light and the flow rate of oxygen. For each experiment, images were collected from six stages, with a minimum of five cells per position (a minimum of 30 cells per […]).
In another embodiment of the invention, human bronchial epitelial cells were incubated with compound 4 to determine ozone's role in cell biology. […] Based on studies why compound 4 and structurally related compounds are not fluorescent, it is believed that the hydroxymethyl group 4 may have been oxidized to give a more electron-withdrawing group, possible a carboxyl or aldehyde group, and so emit a strong fluorescence signal. To circumvent such an oxidation event, compound 8 was prepared specific for ozone. […] Once a steady baseline signal had been established and maintained for five minutes, ozone gas was generated within the airtight environmental chamber that housed the cell-culture dishes, and fluorescent signals were monitored using live-cell microscopy for approximately 15 minutes.
FIGS. 16A-H are photographs of live-cell imaging of human bronchial epithelial cells in the presence of ozone using compound 8. The left-hand panels (FIGS. A-E) are pseudocolour images that indicate the changes in emission intensity over time, and the right-hand panels show differential interference contrast images of the bronchial epithelial cells. FIG. 16A is before the addition of compound 8 (0 seconds). FIG. 16B illustrates the cell at 107 seconds that is a steady state intensity reached with compound 8 at 250 nM. FIG. 16C illustrates the cell at 326 seconds when ozone flow is started. FIG. 16D illustrates the cell at 536 seconds with the emission intensity increasing. FIG. 16E illustrates the cell at 675 seconds when emission maximum is reached. FIG. 16F illustrates the cell at 820 seconds when the cell starts to die. FIG. 16G illustrates the cell at 969 seconds where the cell emission continues to fall. FIG. 16H illustrates the cell at 1148 seconds when the ozone flow is stopped.

A short description of data set [5]: Fluorescence spectroscopy of the compounds. Format: physicochemical. As to the method:
Fluorescence spectroscopy. Fluorescence spectra were recorded in a 1×1-cm disposable cuvette (VWR; catalog number 58017-880) on a Jobin Yvon FluoroMax-3 spectrometer under the control of a Windows-based PC running FluorEssence software. The samples were excited at 497 nm and the emission intensities were collected at 523 nm. All spectra were corrected for emission intensity using the manufacturer supplied photomultiplier curves.
FIGS. 4A-H illustrate absorbance and fluorescence emission of compounds 4, 7, 8, and S1, wherein fluorescence and emission spectra were measured in 0.1% DMSO in pH 7 buffer. FIG. 4A is absorbance spectrum of compound 4. FIG. 4B is Emission spectrum of compound 4. FIG. 4C is Absorbance spectrum of compound 7. FIG. 4D is Emission spectrum of compound 7. FIG. 4E is Absorbance spectrum of compound 8. FIG. 4F is Emission spectrum of compound 8. FIG. 4G is Absorbance spectrum of compound S1. FIG. 4H is Emission spectrum of compound S1.

Turning to `O=C1/C(=C2\Nc3ccc(S(=O)(=O)[O-])cc3C2=O)Nc2ccc(S(=O)(=O)[O-])cc21.[Na+].[Na+]` [compound 1, indigo carmine], the “decrease in absorbance at 610 nm” value in data set [1] (500 nmol on adsorbent paper, photocopy room, eight hours) is 77%. Also, the “consumption of compound 1” value in data set [1] (correlated from decrease in absorbance at 610 nm) is 387 nmol. In addition, the “decrease in absorbance at 610 nm with nearly all ROS” value in data set [2] is listed as 11-70%.

Regarding `C=CCCOc1cc2oc3cc(=O)c(Cl)cc-3c(-c3ccccc3C)c2cc1Cl` [compound 8], in data set [3], the IC50 at 3 days came out at 43 µM. Besides, the “fluorescent emissions inside the cells after ozone generation” value in data set [4] (250 nM, ozone ~2.1 ppm, about 15 minutes) is “time-dependent increase in fluorescent emissions occurred inside the cells”. Besides, the “time at which emission maximum is reached” value in data set [4] (250 nM, ozone flow started at 326 seconds) is 675 s. Also, in data set [4] (human bronchial epithelial cells, no external ozone), the “fluorescence inside the cells in the absence of external ozone” value is listed as “remained weakly fluorescent within the cells”. The “fluorescence of the probe itself” value in data set [5] is on record as “nearly non-fluorescent”.
